Laboratory results published in PMC7596085, “The pathogenic S688Y mutation in the ligand-binding domain of the GluN1 subunit regulates the properties of NMDA receptors” (Scientific Reports, 2020).
Like-named read-outs stand apart in the source and are kept apart here.

What was measured:
[1] = system: hippocampal neurons expressing YFP-hGluN1-1a-S688Y; assay: NMDA-induced excitotoxicity, hippocampal neurons expressing YFP-hGluN1-1a-S688Y; type: cell-based, rat; details: 1 h treatment, measured 23 h later
Method: (§1) Excitotoxicity was measured 23 h after treatment by staining cells with the nuclear marker Hoechst 33,342 and then performing complex image analysis (Fig. 6a,b; see "Methods").
(§2) Excitotoxicity was induced as described previously. In brief, the cultured neurons were incubated overnight in 10% MEM (Thermo Fisher Scientific) and 90% salt-glucose (SG) medium containing 114 mM NaCl, 0.219% NaHCO3, 5.292 mM KCl, 1 mM MgCl2, 2 mM CaCl2, 10 mM HEPES, 30 mM glucose, […], and 0.1% phenol red. The following day, the media was replaced with 100% SG and the indicated concentrations of agonists/co-agonists were added to the neurons. […] Nuclear area was measured using ImageJ software (v. 1.52p), and custom-made macro scripts were used to automatically measure only the nuclei of infected cells (identified by YFP expression). […] The ratio of the number of cells in each group was then used to estimate the effects of mixing the two distributions and is expressed as the ratio of pyknotic and non-pyknotic cells. The percentage of pyknotic cells in each condition was then calculated as the number of cells classified as pyknotic divided by the total number of cells in that condition.

[2] = biological target: T1, hippocampal neurons expressing YFP-hGluN1-1a (Rattus norvegicus, UniProt P35439, I267L/M415L/N159S/R212K); assay: NMDA-induced excitotoxicity, hippocampal neurons expressing YFP-hGluN1-1a; type: cell-based; details: 1 h treatment, measured 23 h later
T1 construct: expressed in transfected cells; host or cells: primary rat hippocampal neurons (E18 Wistar), lentiviral infection with shRNA knock-down of endogenous GluN1
Method: as §1, §2

[3] = system: hGluN1-4a-S688Y/hGluN3A; details: hGluN1-4a-S688Y/hGluN3A vs hGluN1-4a/hGluN3A, peak response
[4] = system: GluN1 S688A mutation; details: S688A mutation vs wild type; cited from earlier work
[5] = system: hippocampal neurons expressing YFP-hGluN1-1a; details: steady-state concentration-response, in the presence of 1 mM NMDA
[6] = system: hippocampal neurons expressing YFP-hGluN1-1a-S688Y; details: steady-state concentration-response, in the presence of 1 mM NMDA
[7] = system: hippocampal neurons expressing YFP-hGluN1-1a
[8] = system: hippocampal neurons expressing YFP-hGluN1-1a-S688Y; details: 10 µM glycine together with 100 µM NMDA
[9] = 10 µM co-agonist in the presence of 100 µM NMDA

Row | Compound | neuronal cell death (% of d.n., pyknotic nuclei) ([1]; 10 µM co-agonist alone) | neuronal cell death / excitotoxicity (% of d.n., pyknotic nuclei) [1, 9] | neuronal cell death (% of d.n., pyknotic nuclei) ([2]; 10 µM co-agonist alone) | neuronal cell death / excitotoxicity (% of d.n., pyknotic nuclei) [2, 9] [%] | decrease in glycine potency compared to wild-type receptors [3] | reduction in glycine potency [4] | EC50 [5] [µM] | Hill coefficient (h) [5] | EC50 ([5]; listed as Glycine) [µM] | EC50 [6] [µM] | Hill coefficient (h) [6] | EC50 ([6]; listed as Glycine) [µM] | intracellular Ca2+ (Fura-2 F340/F380) ([7]; 10 µM glycine together with 100 µM NMDA) | intracellular Ca2+ (Fura-2 F340/F380) ([7]; 1000 µM glycine together with 100 µM NMDA) | intracellular Ca2+ (Fura-2 F340/F380) [8]
1 | N[C@H](CO)C(=O)O [D-serine] | only a small degree of cell death | significantly reduced cell death | only a small degree of cell death | ~100 | – | – | – | – | – | – | – | – | – | – | –
2 | NCC(=O)O [glycine] | – | – | – | – | ~ twofold | four-fold | 0.2 | 1.15 ± 0.05 | 0.17 ± 0.02 | 220 | 0.82 ± 0.06 | 219 ± 6.11 | robust increase | robust increase | no measurable effect
